For one assay, the system named is Pseudomonas aeruginosa. Briefly: Antibacterial activity against Pseudomonas aeruginosa ATCC 27853 after 24 hrs by macrobroth dilution method. The class given is functional. The conditions noted are these: ATCC 27853, 24 h. In general terms: In broth dilution the organism is exposed to a series of concentrations in liquid medium.
Assay [1] relates to Streptococcus pneumoniae. Briefly: Antibacterial activity against […] Streptococcus pneumoniae ATCC 49619 after 24 hrs by macrobroth dilution method. The conditions noted are these: ATCC 49619, 24 h. Type of assay: functional.
The test system of assay [2] is Escherichia coli. Nature of the assay: Antibacterial activity against gentamicin-resistant Escherichia coli ATCC 6174 after 24 hrs by macrobroth dilution method. Type of assay: functional. Particulars: ATCC 6174, 24 h.
Assay [3] has as its system Staphylococcus aureus. Briefly: Antibacterial activity against Staphylococcus aureus ATCC 29213 after 24 hrs by macrobroth dilution method. Particulars: ATCC 29213, 24 h. Type of assay: functional.
The test system of assay [4] is Staphylococcus aureus. Nature of the assay: Antibacterial activity against methicillin-resistant Staphylococcus aureus ATCC 33592 after 24 hrs by macrobroth dilution method. The class given is functional. The conditions noted are these: ATCC 33592, 24 h.
The test system of assay [5] is Staphylococcus epidermidis. Briefly: Antibacterial activity against methicillin-resistant Staphylococcus epidermidis ATCC 14990 after 24 hrs by macrobroth dilution method. Type of assay: functional. Particulars: ATCC 14990, 24 h.
The subject of assay [6] is Escherichia coli. Briefly: Antibacterial activity against Escherichia coli ATCC 25922 after 24 hrs by macrobroth dilution method. Type of assay: functional. The conditions noted are these: ATCC 25922, 24 h.
Another assay concerns Candida albicans. Briefly: Antibacterial activity against Candida albicans. Type of assay: functional.
Assay [7] concerns Staphylococcus epidermidis. Nature of the assay: Antibacterial activity against Staphylococcus epidermidis ATCC 1490 after 24 hrs by macrobroth dilution method. Type of assay: functional. Particulars: ATCC 1490, 24 h.
Assay [8] concerns Streptococcus pneumoniae. Nature of the assay: Antibacterial activity against Streptococcus pneumoniae ATCC 49619 after 24 hrs by macrobroth dilution method. The conditions noted are these: ATCC 49619, 24 h.
Assay [9] relates to Staphylococcus aureus. Nature of the assay: Antibacterial activity against methicillin-susceptible Staphylococcus aureus after 24 hrs by macrobroth dilution method. The class given is functional.
Assay [10] has as its system Staphylococcus aureus. Nature of the assay: Antibacterial activity against methicillin-resistant Staphylococcus aureus. The class given is functional.
Assay [11] concerns Escherichia coli. Nature of the assay: Antibacterial activity against Escherichia coli. Type of assay: functional.
Assay [12] deals with Staphylococcus aureus. Nature of the assay: Antibacterial activity against Staphylococcus aureus. The class given is functional.

In ChEMBL document CHEMBL1140095, “Design, synthesis, and antibacterial activities of neomycin-lipid conjugates: polycationic lipids with potent gram-positive activity” (2008) one finds MIC data, which are given here for nine molecules.

≈ marks a conversion by molar mass, not a printed value. Bounds are passed on as bounds.

One may read the MIC as the lowest concentration that inhibits growth of the organism. Lower therefore signals inhibition by little substance. Take `NC[C@@H]1O[C@H](O[C@H]2[C@@H](O)[C@H](O[C@@H]3[C@@H](O)[C@H](N)C[C@H](N)[C@H]3O[C@H]3O[C@H](CN)[C@@H](O)[C@H](O)[C@H]3N)O[C@@H]2CNC(=O)CCCc2ccc3ccc4cccc5ccc2c3c45)[C@H](N)[C@@H](O)[C@@H]1O`: the MIC in the assay with Pseudomonas aeruginosa was 256 µg/mL (≈ 290 µM); with Streptococcus pneumoniae [1] it was more than 512 µg/mL; in the assay on Escherichia coli [2] it was 64 µg/mL (≈ 72.4 µM); against Staphylococcus aureus [3], 16 µg/mL (≈ 18.1 µM); in the assay on Staphylococcus aureus [4], 256 µg/mL (≈ 290 µM); in assay [5], 64 µg/mL (≈ 72.4 µM). Further, the MIC in the assay with Escherichia coli [6] was 32 µg/mL (≈ 36.2 µM); against Candida albicans, not below 512 µg/mL; in assay [7], 2 µg/mL (≈ 2.26 µM).

Turning to `CCCCCC(=O)NC[C@H]1O[C@@H](O[C@@H]2[C@@H](O)[C@H](N)C[C@H](N)[C@H]2O[C@H]2O[C@H](CN)[C@@H](O)[C@H](O)[C@H]2N)[C@H](O)[C@@H]1O[C@H]1O[C@@H](CN)[C@@H](O)[C@H](O)[C@H]1N`, the minimum inhibitory concentration (MIC) in the assay on Pseudomonas aeruginosa was more than 512 µg/mL; against Escherichia coli [2], 16 µg/mL (≈ 22.5 µM); in the assay on Staphylococcus aureus [3], 16 µg/mL (≈ 22.5 µM); against Staphylococcus aureus [4], more than 512 µg/mL; in [5] it was 32 µg/mL (≈ 45 µM); against Escherichia coli [6], 16 µg/mL (≈ 22.5 µM). Besides, the MIC against Candida albicans was not below 512 µg/mL; in the assay with Streptococcus pneumoniae [8] it was 64 µg/mL (≈ 89.9 µM); in [7], 2 µg/mL (≈ 2.81 µM).

Consider `CCCCCCCCCCCCCCCC(=O)NC[C@H]1O[C@@H](O[C@@H]2[C@@H](O)[C@H](N)C[C@H](N)[C@H]2O[C@H]2O[C@H](CN)[C@@H](O)[C@H](O)[C@H]2N)[C@H](O)[C@@H]1O[C@H]1O[C@@H](CN)[C@@H](O)[C@H](O)[C@H]1N`, for which the MIC came out at 128 µg/mL (≈ 150 µM) with Pseudomonas aeruginosa; 64 µg/mL (≈ 75.1 µM) against Escherichia coli [2]; 4 µg/mL (≈ 4.69 µM) in the assay with Staphylococcus aureus [3]; 8 µg/mL (≈ 9.39 µM) against Staphylococcus aureus [4]; 2 µg/mL (≈ 2.35 µM) in assay [5]; 32 µg/mL (≈ 37.6 µM) in the assay on Escherichia coli [6]. The MIC in the assay with Candida albicans is not below 512 µg/mL; in the assay with Streptococcus pneumoniae [8] it was 64 µg/mL (≈ 75.1 µM); in assay [7] it was 2 µg/mL (≈ 2.35 µM).

Regarding `CCCCCCCCCCCCCCCCCCCC(=O)NC[C@H]1O[C@@H](O[C@@H]2[C@@H](O)[C@H](N)C[C@H](N)[C@H]2O[C@H]2O[C@H](CN)[C@@H](O)[C@H](O)[C@H]2N)[C@H](O)[C@@H]1O[C@H]1O[C@@H](CN)[C@@H](O)[C@H](O)[C@H]1N`, the MIC in the assay with Pseudomonas aeruginosa turned out to be 64 µg/mL (≈ 70.5 µM); with Streptococcus pneumoniae [1], 64 µg/mL (≈ 70.5 µM); in the assay on Escherichia coli [2], 128 µg/mL (≈ 141 µM); with Staphylococcus aureus [3] it was 8 µg/mL (≈ 8.81 µM); with Staphylococcus aureus [4] it was 8 µg/mL (≈ 8.81 µM); in [5] it was 4 µg/mL (≈ 4.4 µM). Moreover, the MIC with Escherichia coli [6] is 128 µg/mL (≈ 141 µM); in the assay with Candida albicans, not below 512 µg/mL; in assay [7], 4 µg/mL (≈ 4.4 µM).

Turning to `CCCCCCCCCCCC(=O)NC[C@H]1O[C@@H](O[C@@H]2[C@@H](O)[C@H](N)C[C@H](N)[C@H]2O[C@H]2O[C@H](CN)[C@@H](O)[C@H](O)[C@H]2N)[C@H](O)[C@@H]1O[C@H]1O[C@@H](CN)[C@@H](O)[C@H](O)[C@H]1N`, the MIC in the assay on Pseudomonas aeruginosa is 256 µg/mL (≈ 322 µM); against Escherichia coli [2], 64 µg/mL (≈ 80.4 µM); against Staphylococcus aureus [3], 32 µg/mL (≈ 40.2 µM); in the assay on Staphylococcus aureus [4], more than 512 µg/mL; in assay [5], 8 µg/mL (≈ 10.1 µM); in the assay on Escherichia coli [6] it was 64 µg/mL (≈ 80.4 µM). In addition, the MIC against Candida albicans was not below 512 µg/mL; in the assay with Streptococcus pneumoniae [8], 128 µg/mL (≈ 161 µM); in assay [7], 4 µg/mL (≈ 5.03 µM).

Take `C[C@@H](CCC(=O)NC[C@H]1O[C@@H](O[C@@H]2[C@@H](O)[C@H](N)C[C@H](N)[C@H]2O[C@H]2O[C@H](CN)[C@@H](O)[C@H](O)[C@H]2N)[C@H](O)[C@@H]1O[C@H]1O[C@@H](CN)[C@@H](O)[C@H](O)[C@H]1N)[C@@H]1CC[C@H]2[C@@H]3[C@@H](O)C[C@H]4C[C@@H](O)CC[C@@]4(C)[C@H]3C[C@@H](O)[C@]21C` (stereo in doubt): the MIC was more than 256 µg/mL against Pseudomonas aeruginosa; more than 256 µg/mL in the assay with Streptococcus pneumoniae [1]; 64 µg/mL (≈ 63.7 µM) in the assay on Escherichia coli [2]; 16 µg/mL (≈ 15.9 µM) against Staphylococcus aureus [3]; 128 µg/mL (≈ 127 µM) with Staphylococcus aureus [4]; 16 µg/mL (≈ 15.9 µM) in assay [5]. Moreover, the MIC in the assay with Escherichia coli [6] is 32 µg/mL (≈ 31.9 µM); in the assay on Candida albicans, not below 512 µg/mL; in assay [7] it was 8 µg/mL (≈ 7.97 µM).

Consider `CCCCCCCCCCCC(=O)O` [DODECANOATE], for which the MIC in the assay with Staphylococcus aureus [9] and against Staphylococcus aureus [4] was 400 µg/mL (≈ 2000 µM) in each case.

For `NC[C@@H]1O[C@H](O[C@H]2[C@@H](O)[C@H](O[C@@H]3[C@@H](O)[C@H](N)C[C@H](N)[C@H]3O[C@H]3O[C@H](CN)[C@@H](O)[C@H](O)[C@H]3N)O[C@@H]2CO)[C@H](N)[C@@H](O)[C@@H]1O` [FRAMYCETIN], the MIC in the assay with Pseudomonas aeruginosa was 512 µg/mL (≈ 833 µM); against Streptococcus pneumoniae [1] it was 64 µg/mL (≈ 104 µM); in the assay with Escherichia coli [2] it was 4 µg/mL (≈ 6.51 µM); in the assay on Staphylococcus aureus [3], 2 µg/mL (≈ 3.25 µM); in the assay with Staphylococcus aureus [4] it was 256 µg/mL (≈ 416 µM); in [5], 0.5 µg/mL (≈ 0.813 µM). Further, the MIC is 8 µg/mL (≈ 13 µM) against Escherichia coli [6], not below 512 µg/mL against Candida albicans and 1 µg/mL (≈ 1.63 µM) in assay [7].

For `CCCCCCCCCCCCC/C=C/[C@@H](O)[C@@H](N)CO` [SPHINGOSINE], the MIC was 4 µg/mL (≈ 13.4 µM) against Staphylococcus aureus [10], 42 µg/mL (≈ 140 µM) in the assay with Escherichia coli [11], 6 µg/mL (≈ 20 µM) in the assay with Candida albicans and 2 µg/mL (≈ 6.68 µM) in the assay on Staphylococcus aureus [12].
